Results from ChEMBL document CHEMBL1135515, “Discovery of aminopyridine-based inhibitors of bacterial enoyl-ACP reductase (FabI)” (J Med Chem, 2002).
Values after ≈ are worked out from the molar mass of the structure shown.

Key:
[1] = test system: Haemophilus influenzae; test: Minimum concentration required for the inhibition of Haemophilus influenzae was determined.; assay type: functional
[2] = Concentration required for the 50% inhibition of Enoyl-ACP reductase from Streptococcus pneumoniae was determined.
[3] = test system: Staphylococcus aureus; test: Minimum concentration required for the inhibition of Staphylococcus aureus was determined.; assay type: functional
[4] = test system: Haemophilus influenzae; test: Minimum concentration required for inhibition of Haemophilus influenzae was determined.; assay type: functional
[5] = target: T1, Enoyl-[acyl-carrier-protein] reductase [NADPH] FabI (Staphylococcus aureus, UniProt Q6GI75); test: Concentration required for the 50% inhibition of enoyl-ACP reductase from Staphylococcus aureus was determined.
T1 sequence (Q6GI75 whole entry): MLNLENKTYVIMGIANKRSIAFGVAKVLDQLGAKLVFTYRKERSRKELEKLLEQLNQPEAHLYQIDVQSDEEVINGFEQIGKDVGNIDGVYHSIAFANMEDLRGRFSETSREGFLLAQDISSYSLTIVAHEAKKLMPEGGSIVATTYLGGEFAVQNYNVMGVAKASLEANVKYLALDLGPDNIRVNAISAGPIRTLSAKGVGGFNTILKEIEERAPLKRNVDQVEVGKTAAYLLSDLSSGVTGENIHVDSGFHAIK

[6] = test system: Enterococcus faecalis; test: Minimum concentration required for inhibition of Enterococcus faecalis was determined.; assay type: functional
[7] = test system: Staphylococcus aureus; test: Minimum concentration required for inhibition of Staphylococcus aureus was determined.; assay type: functional
[8] = test system: Streptococcus pneumoniae; test: Minimum concentration required for inhibition of Streptococcus pneumoniae was determined.; assay type: functional
[9] = Concentration required for the 50% inhibition of enoyl-ACP reductase from Haemophilus influenzae was determined.
[10] = Compound was measured for the inhibition of enoyl-ACP reductase from Haemophilus influenzae
[11] = test system: Staphylococcus aureus; test: Antibacterial activity was measured against Staphylococcus aureus; assay type: functional
[12] = Inhibitory concentration against Streptococcus pneumoniae Enoyl-ACP reductase
[13] = test system: Enterococcus faecalis; test: Minimum inhibitory concentration against growth of Enterococcus faecalis; assay type: functional
[14] = Compound was measured for the inhibition of enoyl-ACP reductase from Staphylococcus aureus
[15] = test system: Streptococcus pneumoniae; test: Minimum inhibitory concentration against growth of Streptococcus pneumoniae; assay type: functional
[16] = test system: Haemophilus influenzae; test: Antibacterial activity was measured against Haemophilus influenzae; assay type: functional
[17] = test system: Escherichia coli; test: Minimum concentration required for inhibition of Escherichia coli AcrAB was determined.; assay type: functional
[18] = test system: Moraxella catarrhalis; test: Minimum concentration required for inhibition of Moraxella catarrhalis was determined.; assay type: functional

Oc1cc(Cl)ccc1Oc1ccc(Cl)cc1Cl [TRICLOSAN]
MIC [1]: ≤ 0.06 µg/mL
IC50 [2]: > 30 µM
MIC [3]: ≤ 0.06 µg/mL

CN(Cc1cc2ccccc2n1C)C(=O)c1ccc(N)nc1
MIC [4]: > 64 µg/mL
IC50 [5]: > 100 µM
MIC [6]: > 64 µg/mL
MIC [7]: > 64 µg/mL
MIC [8]: > 64 µg/mL
IC50 [9]: 19.2 µM

CN(Cc1cc2ccccc2n1C)C(=O)/C=C/c1ccc(N)cc1
IC50 [10]: 9 µM
MIC [11]: 32 µg/mL (≈ 100 µM)
IC50 [12]: > 30 µM
MIC [13]: > 64 µg/mL
IC50 [14]: > 11.2 µM
MIC [15]: > 64 µg/mL
MIC [16]: > 64 µg/mL

CN(Cc1cc2ccccc2n1C)C(=O)/C=C/c1ccc(N)nc1
MIC [4]: > 64 µg/mL
IC50 [5]: 2.4 µM
MIC [6]: > 64 µg/mL
MIC [7]: 0.5 µg/mL (≈ 1.56 µM)
MIC [17]: 8 µg/mL (≈ 25 µM)
MIC [8]: > 64 µg/mL
IC50 [9]: 4.2 µM
MIC [18]: 4 µg/mL (≈ 12.5 µM)

CN(Cc1cc2ccccc2n1C)C(=O)/C=C/c1cccnc1
MIC [4]: > 64 µg/mL
IC50 [5]: 14.2 µM
MIC [6]: > 64 µg/mL
MIC [7]: 16 µg/mL (≈ 52.4 µM)
MIC [8]: > 64 µg/mL
IC50 [9]: 15.2 µM

CN(Cc1cc2ccccc2n1C)C(=O)c1ccc2c(c1)CN(C)C(=O)[C@H](C(=O)O)N2
MIC [4]: > 64 µg/mL
IC50 [5]: 676 µM
MIC [6]: > 64 µg/mL
MIC [7]: > 64 µg/mL
MIC [8]: > 64 µg/mL
IC50 [9]: > 100 µM

CN(Cc1cc2ccccc2n1C)C(=O)c1ccccc1
MIC [4]: > 64 µg/mL
IC50 [5]: > 100 µM
MIC [6]: > 64 µg/mL
MIC [7]: > 64 µg/mL
MIC [8]: > 64 µg/mL
IC50 [9]: > 100 µM

CC(=O)N(C)Cc1cccc(C(=O)N(C)Cc2cc3ccccc3n2C)c1
MIC [4]: > 64 µg/mL
IC50 [5]: 107 µM
MIC [6]: > 64 µg/mL
MIC [7]: > 64 µg/mL
MIC [8]: > 64 µg/mL
IC50 [9]: 121 µM

CN(Cc1cc2ccccc2n1C)C(=O)CCc1ccc(N)nc1
MIC [4]: > 64 µg/mL
IC50 [5]: 93.7 µM
MIC [6]: > 64 µg/mL
MIC [7]: > 64 µg/mL
MIC [8]: > 64 µg/mL
IC50 [9]: 97.4 µM

COC(=O)C[C@H]1Nc2ccc(C(=O)N(C)Cc3cc4ccccc4n3C)cc2CN(C)C1=O
MIC [4]: > 64 µg/mL
IC50 [5]: 9.9 µM
MIC [6]: > 64 µg/mL
MIC [7]: > 64 µg/mL
MIC [8]: > 64 µg/mL
IC50 [9]: 5.1 µM

CC(=O)N(C)Cc1cc(C(=O)N(C)Cc2cc3ccccc3n2C)ccc1N
MIC [4]: > 64 µg/mL
IC50 [5]: 6.7 µM
MIC [6]: > 64 µg/mL
MIC [7]: 16 µg/mL (≈ 42.3 µM)
MIC [8]: > 64 µg/mL
IC50 [9]: 4.7 µM

CN(Cc1cc2ccccc2n1C)C(=O)c1ccc(N)cc1
MIC [4]: > 64 µg/mL
IC50 [5]: 16.3 µM
MIC [6]: > 64 µg/mL
MIC [7]: 32 µg/mL (≈ 109 µM)
MIC [8]: > 64 µg/mL
IC50 [9]: 2.6 µM

CN1Cc2cc(C(=O)N(C)Cc3cc4ccccc4n3C)ccc2NCC1=O
MIC [4]: > 64 µg/mL
IC50 [5]: 21.2 µM
MIC [6]: > 64 µg/mL
MIC [7]: 16 µg/mL (≈ 42.5 µM)
MIC [8]: > 64 µg/mL
IC50 [9]: 2.5 µM

COC(=O)CC1Nc2ccc(C(=O)N(C)Cc3cc4ccccc4n3C)cc2CN(C)C1=O (stereo unspecified)
MIC [4]: > 64 µg/mL
IC50 [5]: 16.5 µM
MIC [6]: > 64 µg/mL
MIC [7]: > 64 µg/mL
MIC [8]: > 64 µg/mL
IC50 [9]: 6.9 µM
MIC [18]: 32 µg/mL (≈ 71.3 µM)

CN(Cc1cc2ccccc2n1C)C(=O)/C=C/c1cnc(N)nc1
MIC [4]: > 64 µg/mL
IC50 [5]: 2.2 µM
MIC [6]: > 64 µg/mL
MIC [7]: 2 µg/mL (≈ 6.22 µM)
MIC [8]: > 64 µg/mL
IC50 [9]: 4.3 µM
